From patent publication US20120238767A1, “ANTIOXIDANT INFLAMMATION MODULATORS: NOVEL DERIVATIVES OF OLEANOLIC ACID” (priority 2008, published 2012)
≈ marks a conversion by molar mass, not a printed value.

Test: Aqueous solubility determination (Millipore Multiscreen solubility filter plate, UV/vis)
Assay type: physicochemical
Conditions: kinetic from dmso stock; Universal Aqueous Buffer pH 7.4, 90 minutes at room temperature
Protocol: Aqueous Solubility Determination. The following procedure was used to obtain the aqueous solubility results summarized in Example 4. Step 1. Determination of optimal UV/vis wavelengths and generation of standard curves for a compound of interest: • (1) For eight standard calibration curves (one plate), prepare 34 mL of 50:50 (v:v) universal buffer:acetonitrile in a 50 mL tube. • (2) Using a multichannel pipet, dispense (in μL) the buffer:acetonitrile in a deep well plate as follows:
• (3) Using a multichannel pipet, dispense DMSO into the same plate as follows:
• (4) Add 10 mM compound in DMSO into the plates as follows:
• (5) Mix columns 1 and 2 by pipetting each up and down 10 times. Mix columns 3 and 4 by pipetting up and down 10 times. Serially dilute as follows (pipet up and down 10 times after each transfer):
• (6) Cover plate with lid and shake (200-300 rpm) at room temperature for 20 minutes. • (7) Mix all wells by pipetting up and down 10 times. • (8) Transfer 120 μL from each well to a UV transparent plate. Cover and shake for 3-5 minutes. Remove any bubbles in the wells using a pipet. • (9) Read from 220 nm to 500 nm at 10 nm increments on a spectrophotometer (e.g., SpectraMax®).
Step 2. Compound Solubility Testing Procedures using the Millipore™ Multiscreen® Solubility Filter Plate. […]
Solubility Protocol: • (a) Add 285 μL of Universal Aqueous Buffer to desired wells of the Millipore™ Multiscreen® Solubility filter plate. • (b) Add 15 μL of 10 mM compound in DMSO to the appropriate wells. […] Remove any bubbles with a pipet. • (i) Measure the absorbance of each well in the plate on the spectrophotometer (UV/vis) at the desired wavelength. For compounds in a plate with different absorbance peaks, set the spectrophotometer to read a spectrum (e.g., from 220 nm to 460 nm). • (j) Identify concentration using measured absorbance for each compound and the predetermined standard curve (see Step 1).

**Q.** For CC1(C)CC[C@]2(C(=O)NCC(F)(F)F)CC[C@]3(C)[C@H](C(=O)C=C4[C@@]5(C)C=C(C#N)C(=O)C(C)(C)[C@@H]5CC[C@]43C)[C@@H]2C1 [Compound 63102, reference compound], which solubility at 90 min is on record?
**A.** 0.06 µM (≈ 0.0344 µg/mL)

**Q.** With CC1(C)CC[C@]2(N)CC[C@]3(C)[C@H](C(=O)C=C4[C@@]5(C)C=C(C#N)C(=O)C(C)(C)[C@@H]5CC[C@]43C)[C@@H]2C1 [Compound 63198] as the compound, how does the solubility at 90 min read?
**A.** 164 µM (≈ 75.7 µg/mL)

**Q.** Which solubility at 90 min does the source give for COC(=O)[C@]12CCC(C)(C)C[C@H]1[C@H]1C(=O)C[C@@H]3[C@@]4(C)C=C(C#N)C(=O)C(C)(C)[C@@H]4CC[C@@]3(C)[C@]1(C)CC2 [Compound 63219] here?
**A.** 13.6 µM (≈ 6.89 µg/mL)
